According to article PMC4845010, “Three TaFAR genes function in the biosynthesis of primary alcohols and the response to abiotic stresses in Triticum aestivum” (Scientific Reports, 2016):

Target: T1, TaFAR3 (Triticum aestivum, UniProt A0A142IX60)
T1 construct: gene FAR3; full-length ORF, 497 residues (1,494 bp), untagged expression from pYES2/pYES3 in Saccharomyces cerevisiae; gene on chromosome 4BS
T1 sequence (A0A142IX60 1-497): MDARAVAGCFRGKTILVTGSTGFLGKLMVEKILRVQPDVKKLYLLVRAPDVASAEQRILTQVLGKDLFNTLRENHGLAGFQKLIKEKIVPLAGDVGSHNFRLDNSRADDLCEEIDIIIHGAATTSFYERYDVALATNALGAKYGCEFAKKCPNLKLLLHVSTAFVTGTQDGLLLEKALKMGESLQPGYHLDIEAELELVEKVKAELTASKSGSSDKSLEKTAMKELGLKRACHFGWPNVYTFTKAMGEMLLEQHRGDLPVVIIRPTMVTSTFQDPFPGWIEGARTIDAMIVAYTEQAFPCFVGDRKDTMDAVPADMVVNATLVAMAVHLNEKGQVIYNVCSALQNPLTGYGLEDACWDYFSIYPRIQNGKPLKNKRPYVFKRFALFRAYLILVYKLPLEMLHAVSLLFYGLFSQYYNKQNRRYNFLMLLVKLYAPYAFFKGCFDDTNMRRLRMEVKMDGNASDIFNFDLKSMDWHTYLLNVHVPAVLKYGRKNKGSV
Test: heterologous expression in yeast, lipid extraction, TLC and GC-MS
Assay type: cell-based
Settings: yeast mutant INVSur4# (Sur4 F262A/K266L); endogenous acyl-CoA substrates; none in empty-vector control

SMILES: CCCCCCCCCCCCCCCCCCCCCCCCCCCCO [C28:0-OH]
- heterologous expression in yeast, lipid extraction, TLC and GC-MS: In the case of TaFAR3, the highest production of primary alcohol was C28:0-OH
